Source: PubChem BioAssay (NCI)
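Method: 48-hour compound exposure of cells in 96-well plates, five concentrations, linear interpolation of endpoints. Here, GI50 denotes the concentration required for 50% inhibition of growth. The concentration for full growth arrest is given as TGI.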

Columns and labels:
Assay in all cases: NCI-60 cell line screen, 48 h
HOP-62 NSCLC = tested on: HOP-62 NSCLC
LOX IMVI melanoma = tested on: LOX IMVI melanoma
HOP-92 NSCLC = tested on: HOP-92 NSCLC
M14 melanoma = tested on: M14 melanoma
SK-MEL-2 melanoma = tested on: SK-MEL-2 melanoma
MDA-MB-231 breast = tested on: MDA-MB-231 breast
SW-620 colon = tested on: SW-620 colon
HCT-15 colon = tested on: HCT-15 colon
SF-268 CNS = tested on: SF-268 CNS
RXF 393 renal = tested on: RXF 393 renal
T-47D breast = tested on: T-47D breast
SNB-75 CNS = tested on: SNB-75 CNS
OVCAR-3 ovarian = tested on: OVCAR-3 ovarian
MCF7 breast = tested on: MCF7 breast
CCRF-CEM leukemia = tested on: CCRF-CEM leukemia
SN12C renal = tested on: SN12C renal
NCI-H23 lung = tested on: NCI-H23 lung
SK-MEL-28 melanoma = tested on: SK-MEL-28 melanoma
SF-539 CNS = tested on: SF-539 CNS
SF-295 CNS = tested on: SF-295 CNS
PC-3 prostate = tested on: PC-3 prostate
HCC-2998 colon = tested on: HCC-2998 colon
HS 578T breast = tested on: HS 578T breast
A549 NSCLC = tested on: A549 NSCLC
NCI-H522 lung = tested on: NCI-H522 lung
NCI/ADR-RES ovarian = tested on: NCI/ADR-RES ovarian
SK-OV-3 ovarian = tested on: SK-OV-3 ovarian
DU-145 prostate = tested on: DU-145 prostate
MOLT-4 leukemia = tested on: MOLT-4 leukemia
A498 renal = tested on: A498 renal
CAKI-1 renal = tested on: CAKI-1 renal
COLO 205 colon = tested on: COLO 205 colon
EKVX NSCLC = tested on: EKVX NSCLC
ACHN renal = tested on: ACHN renal
NCI-H460 lung = tested on: NCI-H460 lung
NCI-H226 lung = tested on: NCI-H226 lung
SNB-19 CNS = tested on: SNB-19 CNS
TK-10 renal = tested on: TK-10 renal
BT-549 breast = tested on: BT-549 breast
UO-31 renal = tested on: UO-31 renal
HCT-116 colon = tested on: HCT-116 colon
MDA-MB-435 = tested on: MDA-MB-435
OVCAR-4 ovarian = tested on: OVCAR-4 ovarian
SR leukemia = tested on: SR leukemia
HL-60(TB) leukemia = tested on: HL-60(TB) leukemia
HT29 colon = tested on: HT29 colon
RPMI-8226 leukemia = tested on: RPMI-8226 leukemia
K-562 leukemia = tested on: K-562 leukemia
SK-MEL-5 melanoma = tested on: SK-MEL-5 melanoma
786-0 renal = tested on: 786-0 renal
IGROV1 ovarian = tested on: IGROV1 ovarian
UACC-62 melanoma = tested on: UACC-62 melanoma
OVCAR-5 ovarian = tested on: OVCAR-5 ovarian
U251 CNS = tested on: U251 CNS

Question: `Clc1nc(Cl)c2ncn(CC#CCn3cnc4c(Cl)nc(Cl)nc43)c2n1` was tested. Which GI50 (HOP-62 NSCLC) did it give?
Answer: 1.9 µM

Question: What about the TGI (HOP-62 NSCLC) of the same molecule?
Answer: 3.89 µM

Question: And the GI50 (LOX IMVI melanoma)?
Answer: 1.86 µM

Question: What about the TGI (LOX IMVI melanoma) of the same molecule?
Answer: 3.41 µM

Question: What about the GI50 (HOP-92 NSCLC) of the same molecule?
Answer: 2.21 µM

Question: What about the TGI (HOP-92 NSCLC) of the same molecule?
Answer: 4.02 µM

Question: And the GI50 (M14 melanoma)?
Answer: 2.6 µM

Question: What about the TGI (M14 melanoma) of the same molecule?
Answer: 5.62 µM

Question: And the GI50 (SK-MEL-2 melanoma)?
Answer: 2.53 µM

Question: What about the TGI (SK-MEL-2 melanoma) of the same molecule?
Answer: 5.55 µM

Question: What about the GI50 (MDA-MB-231 breast) of the same molecule?
Answer: 2.42 µM

Question: What about the TGI (MDA-MB-231 breast) of the same molecule?
Answer: 4.93 µM

Question: What about the GI50 (SW-620 colon) of the same molecule?
Answer: 1.84 µM

Question: What about the TGI (SW-620 colon) of the same molecule?
Answer: 3.46 µM

Question: What about the GI50 (HCT-15 colon) of the same molecule?
Answer: 1.99 µM

Question: What about the TGI (HCT-15 colon) of the same molecule?
Answer: 4.06 µM

Question: What about the GI50 (SF-268 CNS) of the same molecule?
Answer: 1.89 µM

Question: What about the TGI (SF-268 CNS) of the same molecule?
Answer: 3.76 µM

Question: And the GI50 (RXF 393 renal)?
Answer: 1.35 µM

Question: What about the TGI (RXF 393 renal) of the same molecule?
Answer: 2.98 µM

Question: And the GI50 (T-47D breast)?
Answer: 1.85 µM

Question: What about the TGI (T-47D breast) of the same molecule?
Answer: 4.13 µM

Question: What about the GI50 (SNB-75 CNS) of the same molecule?
Answer: 2.87 µM

Question: What about the TGI (SNB-75 CNS) of the same molecule?
Answer: 7.76 µM

Question: What about the GI50 (OVCAR-3 ovarian) of the same molecule?
Answer: 2.06 µM

Question: And the TGI (OVCAR-3 ovarian)?
Answer: 3.71 µM

Question: What about the GI50 (MCF7 breast) of the same molecule?
Answer: 2.18 µM

Question: And the TGI (MCF7 breast)?
Answer: 5.96 µM

Question: And the GI50 (CCRF-CEM leukemia)?
Answer: 1.9 µM

Question: And the TGI (CCRF-CEM leukemia)?
Answer: 3.89 µM

Question: What about the GI50 (SN12C renal) of the same molecule?
Answer: 2.66 µM

Question: And the TGI (SN12C renal)?
Answer: 6.5 µM

Question: What about the GI50 (NCI-H23 lung) of the same molecule?
Answer: 3.05 µM

Question: And the TGI (NCI-H23 lung)?
Answer: 8.52 µM

Question: And the GI50 (SK-MEL-28 melanoma)?
Answer: 1.82 µM

Question: What about the TGI (SK-MEL-28 melanoma) of the same molecule?
Answer: 3.39 µM

Question: What about the GI50 (SF-539 CNS) of the same molecule?
Answer: 2.56 µM

Question: What about the TGI (SF-539 CNS) of the same molecule?
Answer: 6.86 µM

Question: What about the GI50 (SF-295 CNS) of the same molecule?
Answer: 6.69 µM

Question: And the TGI (SF-295 CNS)?
Answer: 20.4 µM

Question: What about the GI50 (PC-3 prostate) of the same molecule?
Answer: 3.61 µM

Question: And the TGI (PC-3 prostate)?
Answer: 11.1 µM

Question: And the GI50 (HCC-2998 colon)?
Answer: 2.08 µM

Question: And the TGI (HCC-2998 colon)?
Answer: 4.05 µM

Question: What about the GI50 (HS 578T breast) of the same molecule?
Answer: 2.49 µM

Question: And the TGI (HS 578T breast)?
Answer: 6.79 µM

Question: And the GI50 (A549 NSCLC)?
Answer: 2.49 µM

Question: What about the TGI (A549 NSCLC) of the same molecule?
Answer: 9.32 µM

Question: And the GI50 (NCI-H522 lung)?
Answer: 1.56 µM

Question: What about the TGI (NCI-H522 lung) of the same molecule?
Answer: 3.51 µM

Question: And the GI50 (NCI/ADR-RES ovarian)?
Answer: 3.73 µM

Question: And the TGI (NCI/ADR-RES ovarian)?
Answer: 24.1 µM

Question: What about the GI50 (SK-OV-3 ovarian) of the same molecule?
Answer: 10.5 µM

Question: And the TGI (SK-OV-3 ovarian)?
Answer: 22.5 µM

Question: And the GI50 (DU-145 prostate)?
Answer: 1.78 µM

Question: What about the TGI (DU-145 prostate) of the same molecule?
Answer: 3.23 µM

Question: What about the GI50 (MOLT-4 leukemia) of the same molecule?
Answer: 0.554 µM

Question: And the TGI (MOLT-4 leukemia)?
Answer: 2.48 µM

Question: What about the GI50 (A498 renal) of the same molecule?
Answer: 10.6 µM

Question: And the TGI (A498 renal)?
Answer: 23 µM

Question: And the GI50 (CAKI-1 renal)?
Answer: 2.05 µM

Question: What about the TGI (CAKI-1 renal) of the same molecule?
Answer: 3.91 µM

Question: And the GI50 (COLO 205 colon)?
Answer: 1.7 µM

Question: And the TGI (COLO 205 colon)?
Answer: 3.36 µM

Question: What about the GI50 (EKVX NSCLC) of the same molecule?
Answer: 2.6 µM

Question: What about the TGI (EKVX NSCLC) of the same molecule?
Answer: 6.2 µM

Question: What about the GI50 (ACHN renal) of the same molecule?
Answer: 1.9 µM

Question: What about the TGI (ACHN renal) of the same molecule?
Answer: 3.32 µM

Question: And the GI50 (NCI-H460 lung)?
Answer: 3.41 µM

Question: What about the TGI (NCI-H460 lung) of the same molecule?
Answer: 12.4 µM

Question: And the GI50 (NCI-H226 lung)?
Answer: 3.18 µM

Question: And the TGI (NCI-H226 lung)?
Answer: 7.94 µM

Question: And the GI50 (SNB-19 CNS)?
Answer: 2.01 µM

Question: What about the TGI (SNB-19 CNS) of the same molecule?
Answer: 4.25 µM

Question: And the GI50 (TK-10 renal)?
Answer: 5.51 µM

Question: What about the TGI (TK-10 renal) of the same molecule?
Answer: 17.8 µM

Question: And the GI50 (BT-549 breast)?
Answer: 3.3 µM

Question: What about the TGI (BT-549 breast) of the same molecule?
Answer: 11.3 µM

Question: What about the GI50 (UO-31 renal) of the same molecule?
Answer: 1.67 µM

Question: And the TGI (UO-31 renal)?
Answer: 3.31 µM

Question: And the GI50 (HCT-116 colon)?
Answer: 1.78 µM

Question: And the TGI (HCT-116 colon)?
Answer: 3.42 µM

Question: What about the GI50 (MDA-MB-435) of the same molecule?
Answer: 3.25 µM

Question: And the TGI (MDA-MB-435)?
Answer: 8.56 µM

Question: What about the GI50 (OVCAR-4 ovarian) of the same molecule?
Answer: 1.89 µM

Question: And the TGI (OVCAR-4 ovarian)?
Answer: 3.36 µM

Question: And the GI50 (SR leukemia)?
Answer: 0.38 µM

Question: And the TGI (SR leukemia)?
Answer: 2.19 µM

Question: And the GI50 (HL-60(TB) leukemia)?
Answer: 2.41 µM

Question: And the TGI (HL-60(TB) leukemia)?
Answer: > 100 µM

Question: And the GI50 (HT29 colon)?
Answer: 1.89 µM

Question: And the TGI (HT29 colon)?
Answer: 3.69 µM

Question: And the GI50 (RPMI-8226 leukemia)?
Answer: 2.09 µM

Question: And the TGI (RPMI-8226 leukemia)?
Answer: 5.07 µM

Question: What about the GI50 (K-562 leukemia) of the same molecule?
Answer: 2.39 µM

Question: What about the TGI (K-562 leukemia) of the same molecule?
Answer: 6.24 µM

Question: What about the GI50 (SK-MEL-5 melanoma) of the same molecule?
Answer: 11.1 µM

Question: What about the TGI (SK-MEL-5 melanoma) of the same molecule?
Answer: 23.3 µM

Question: What about the GI50 (786-0 renal) of the same molecule?
Answer: 3.46 µM

Question: And the TGI (786-0 renal)?
Answer: 11.4 µM

Question: What about the GI50 (IGROV1 ovarian) of the same molecule?
Answer: 1.54 µM

Question: What about the TGI (IGROV1 ovarian) of the same molecule?
Answer: 3.37 µM

Question: What about the GI50 (UACC-62 melanoma) of the same molecule?
Answer: 1.96 µM

Question: And the TGI (UACC-62 melanoma)?
Answer: 3.66 µM

Question: And the GI50 (OVCAR-5 ovarian)?
Answer: 10.5 µM

Question: What about the TGI (OVCAR-5 ovarian) of the same molecule?
Answer: 25.6 µM

Question: And the GI50 (U251 CNS)?
Answer: 2.28 µM

Question: And the TGI (U251 CNS)?
Answer: 4.75 µM
